From article PMC5371667, “Targeting Bile Acid Receptors: Discovery of a Potent and Selective Farnesoid X Receptor Agonist as a New Lead in the Pharmacological Approach to Liver Diseases” (Frontiers in Pharmacology, 2017)

Assays:
PPARα = biological target: T1, PPARα (Homo sapiens, UniProt Q07869); experiment: PPARα transactivation on HepG2 cells (GAL4 LBD reporter); assay type: cell-based; conditions: 10 μM
T1 construct: expressed in transfected cells; host or cells: HepG2
T1 sequence (Q07869 239-466 limits assumed): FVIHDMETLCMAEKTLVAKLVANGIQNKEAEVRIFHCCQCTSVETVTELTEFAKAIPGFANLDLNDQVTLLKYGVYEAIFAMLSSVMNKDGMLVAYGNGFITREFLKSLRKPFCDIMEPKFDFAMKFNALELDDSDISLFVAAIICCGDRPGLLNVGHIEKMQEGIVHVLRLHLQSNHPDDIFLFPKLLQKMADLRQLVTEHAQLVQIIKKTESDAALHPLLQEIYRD
Method: (§1) To evaluate LXRα and LXRβ mediated transactivation, HepG2 cells were transfected with 200 ng of the reporter vector p(UAS)5XTKLuc, 100 ng of a vector containing the ligand binding domain of LXRα or LXRβ cloned upstream of the GAL4-DNA binding domain (i.e., pSG5-LXRαLBD-GAL4DBD or pSG5-LXRβLBD-GAL4DBD) and 100 of pGL4.70 Renilla. At 24 h post-transfection, cells were stimulated 18 h with 10 μM compound 2 and GW3965 (GW, 10 μM) was used as positive control. To investigate the PPARα and PPARγ mediated transactivation, HepG2 cells were transiently transfected with 200 ng reporter vector p(UAS)9XTKLuc, 100 ng of a vector containing the ligand binding domain of PPARα or PPARγ cloned upstream of the GAL4-DNA binding domain (i.e., pSG5- PPARαLBD-GAL4DBD or pSG5- PPARγLBD-GAL4DBD) and 100 of pGL4.70 Renilla. For PPARα transactivation, cells were stimulated with 10 μM compound 2 and gemfibrozil (GEM, 10 μM) was used as positive control. For PPARγ transactivation, cells were stimulated with 10 μM compound 2 and rosiglitazone (ROSI, 100 nM) was used as a positive control. Luciferase activities were assayed and normalized with Renilla activities.

PPARγ = biological target: T2, PPARγ (Homo sapiens, UniProt P37231); experiment: PPARγ transactivation on HepG2 cells (GAL4 LBD reporter); assay type: cell-based; conditions: 10 μM
T2 construct: expressed in transfected cells; host or cells: HepG2
T2 sequence (P37231 238-503 limits assumed): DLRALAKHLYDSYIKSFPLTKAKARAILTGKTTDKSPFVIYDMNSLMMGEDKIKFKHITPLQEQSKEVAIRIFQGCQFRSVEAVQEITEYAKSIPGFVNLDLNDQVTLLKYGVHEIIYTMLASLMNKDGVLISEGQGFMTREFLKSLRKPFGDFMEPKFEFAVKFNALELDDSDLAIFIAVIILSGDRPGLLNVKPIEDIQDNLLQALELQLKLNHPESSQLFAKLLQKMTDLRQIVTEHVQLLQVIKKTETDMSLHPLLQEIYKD
Method: as §1

LXRα = biological target: T3, LXRα (Homo sapiens, UniProt Q13133); experiment: LXRα transactivation on HepG2 cells (GAL4 LBD reporter); assay type: cell-based; conditions: 10 μM
T3 construct: expressed in transfected cells; host or cells: HepG2
T3 sequence (Q13133 209-447 limits assumed): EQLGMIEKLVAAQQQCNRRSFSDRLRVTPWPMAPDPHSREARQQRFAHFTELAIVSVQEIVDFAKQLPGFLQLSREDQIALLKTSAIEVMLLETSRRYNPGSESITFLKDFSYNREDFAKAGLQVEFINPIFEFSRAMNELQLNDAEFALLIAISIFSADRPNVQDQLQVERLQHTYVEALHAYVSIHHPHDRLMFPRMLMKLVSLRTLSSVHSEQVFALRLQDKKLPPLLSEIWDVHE
Method: as §1

[1] = test system: FXR target genes SHP, OSTα, BSEP in HepG2 cells; experiment: RT-PCR of FXR target genes in HepG2 cells; assay type: cell-based, human; conditions: 1 μM, 18 h, versus 6-ECDCA 1 μM
Method: HepG2 cells were plated at 1 × 10^6 cells/well in a six well plate. After an overnight incubation, cells were starved and then stimulated for 18 h with compound 2 at 1 μM. Total RNA was isolated from HepG2 cells or liver tissues using the TRIzol reagent according to the manufacturer’s specifications (Invitrogen). One microgram of purified RNA was treated with DNase-I and reverse transcribed with Superscript II (Invitrogen). For Real Time PCR, 10 ng template was dissolved in 25 μL containing 200 nmol/L of each primer and 12.5 μL of 2× SYBR FAST Universal ready mix (Invitrogen). All reactions were performed in triplicate, and the thermal cycling conditions were as follows: 2 min at 95°C, followed by 40 cycles of 95°C for 20 s and 60°C for 30 s in StepOnePlus (Applied Biosystems). The relative mRNA expression was calculated accordingly to the Ct method. Primers were designed using the software PRIMER3^1 using published data obtained from the NCBI database. Forward and reverse primer sequences were the following: human GAPDH, […] and […]; human BSEP, […] and […]; human OSTα, […] and […]; human SHP, […] and […]; mouse NTCP, […] and […]; mouse CYP7A1, […] and […]; mouse FGF21, […] and […]; mouse GAPDH, […] and […]; mouse BSEP, […] and […]; mouse OSTα, […] and […]; mouse SHP, […] and […].

[2] = mouse, in vivo, po, 50 mg/kg

## CC[C@H]1[C@@H](O)[C@@H]2[C@H](CC[C@]3(C)[C@@H]([C@H](C)CCC(=O)O)CC[C@@H]23)[C@@]2(C)CC[C@H](N=[N+]=[N-])C[C@@H]12 [compound 2, 3β-azido-6α-ethyl-7α-hydroxy-5β-cholan-24-oic acid]
PPARα
  PPARα transactivation: unable in inducing
PPARγ
  PPARγ transactivation: unable in inducing
LXRα
  LXRα transactivation: unable in inducing
[1]
  modulation of BSEP mRNA expression: more potent than 6-ECDCA
  modulation of OSTα mRNA expression: more potent than 6-ECDCA
  modulation of SHP mRNA expression: equipotent with 6-ECDCA
[2]
  liver metabolism / tauro-conjugation: extensive liver metabolism
